Measurements published in the NIST ThermoML archive (doi:10.1016/j.tca.2014.08.035).
Numbers after ± are expanded uncertainties.

Key:
[1] = DTA
[2] = Molar enthalpy of transition or fusion; details: DSC
[3] = Solid-liquid equilibrium temperature; details: 10000 kPa; Crystal 2; DTA
[4] = molar enthalpy of transition or fusion; details: 640.05 K; Crystal 2; DSC

O=S(=O)([O-])O.[NH4+] [ammonium acid sulfate]
Normal melting temperature ([1]; Crystal): 144.20 ± 0.5 °C
Molar enthalpy of transition or fusion ([2]; Crystal): 3.51 ± 0.143 kcal/mol

N.NS(=O)(=O)O [ammonium sulfamate]
Normal melting temperature ([1]; Crystal): 132.90 ± 0.4 °C
Molar enthalpy of transition or fusion ([2]; Crystal): 3.99 ± 0.143 kcal/mol

N.N.O=S(=O)(O)O [ammonium sulfate]
Solid-liquid equilibrium temperature [3]: 640.05 ± 0.8 K
molar enthalpy of transition or fusion [4]: 0.669 ± 0.191 kcal/mol
Molar enthalpy of transition or fusion ([2]; Crystal 3): 0.681 ± 0.43 kcal/mol

O=S(=O)([O-])O.O=S(=O)([O-])[O-].[NH4+].[NH4+].[NH4+] [triammonium hydrogen disulfate]
Normal melting temperature ([1]; Crystal 1): 229.00 ± 4 °C
Triple point temperature ([1]; Crystal 2): 412.85 ± 0.5 K
Molar enthalpy of transition or fusion ([2]; Crystal 1): 7.65 ± 1.91 kcal/mol
Molar enthalpy of transition or fusion ([2]; Crystal 2): 0.645 ± 0.0717 kcal/mol
